Measured values as given in a melting point compilation (Tetko et al.; mined from patent text by program, amines drawn as free bases though some values may be those of a salt).

First: COC(=O)c1ccccc1S(=O)(=O)Nn1c(SC)nn(-c2nc(OC)cc(OC)n2)c1=O
Second: CCn1nc2c(N)nc3ccccc3c2c1CC(C)(C)NS(C)(=O)=O
The melting point of the first is lower: 179 °C for the first, 229 to 230 °C for the second.

Compared with `COCc1nc(-c2ccc(-c3cnc4[nH]c(=O)n(CC5CCOCC5)c4n3)cc2)n[nH]1`, `Nc1nc(-c2ccc(Cl)cc2)cc(C2CCN(C(=O)c3ccccc3)CC2)n1` is lower in melting point: 273 to 276 °C for the first, 129 to 130 °C for the second.

First: CCON(C(=O)Cc1c(C)cc(Cl)cc1C)C1(C#N)CCN(OC)CC1
Second: CCOC(=O)c1cn(CC)c2nc(N3CCNCC3)c(F)cc2c1=O
The melting point of the first is lower: 100 to 103 °C for the first, 150 to 151 °C for the second.

First: OCc1ccc(OCc2cn3c(Cl)cccc3n2)cc1
Second: CCOc1ccc(C(=O)Nc2ccc3ccc(OC)nc3n2)cc1
The melting point of the first is higher: 169 to 171 °C for the first, 145 °C for the second.

First: O=C1N(Cc2ccc(NC3CCNC3)cc2)c2ccccc2C12COc1cc3c(cc12)OCO3 (stereo not given)
Second: O=C(O)c1cc(CN2C(=O)C3(COc4cc5c(cc43)OCO5)c3ccccc32)oc1C(F)(F)F (stereo not given)
The melting point of the first is lower: 118 to 121 °C for the first, 195 to 197 °C for the second.

Compared with `O=C(COc1ccccc1)NC1C(=O)N(C(O)(Cc2ccccc2)C(=O)O)C1CI` (stereo not given), `CC(C)(C)OC(=O)NC(CCOP(=O)(Oc1ccccc1)Oc1ccccc1)C(=O)OCc1ccccc1` (racemic) is lower in melting point: 159 to 160 °C for the first, 63.5 to 64 °C for the second.

`CC1Oc2c(F)cc(CN3CC=C(c4ccc(Cl)cc4)CC3)cc2NC1=O` (stereo not given) and `O=C(Nc1ccc2[nH]c(=O)oc2c1)C(=O)N1CCC(Cc2ccc(F)c(F)c2)CC1` cannot be ordered by melting point: 214 to 233 °C for the first, 233 °C for the second.

First: O=C(Nc1ccccc1)Nc1cccc(-c2c(-c3ccccc3)cnc3c(C(F)(F)F)cccc23)c1
Second: O=C(O)CCc1cn(Cc2ccc3cc(OCc4ccccc4F)ccc3c2)cc1-c1ccccc1
The melting point of the first is higher: 202 to 205 °C for the first, 143 to 144 °C for the second.

First: CCCCCCCCCCCCCCSc1ccc(C(=O)O)s1
Second: CCCCCCC(O)CCCCCCCCCCCOCC(O)CNCCO (stereo not given)
The melting point of the first is higher: 106 to 108 °C for the first, 71.8 to 72.5 °C for the second.

First: Cc1ccc(C(O)Cc2nc(C)c(C)nc2C)cc1 (stereo not given)
Second: Cc1nc(N)nc(N)c1/C=C/C(C)(C)c1ccc(C(F)(F)F)cc1
The melting point of the first is lower: 99 to 101 °C for the first, 182 to 185 °C for the second.

First: COC(=O)C1CC(=O)C(N=Nc2ccccc2)=C(O)C1 (stereo not given)
Second: CN(CCc1ccccc1)c1ssc(=O)c1Cl
The melting point of the first is higher: 117 to 118 °C for the first, 75 °C for the second.

Compared with `COc1cc(CCc2c(/C=C/[N+](=O)[O-])ccc(OC)c2OC)cc(OC)c1`, `COc1ccc2c(c1OC)C(=O)C(O)=C(C)C2=O` is higher in melting point: 95 to 96 °C for the first, 218 °C for the second.

First: CCCn1nc2c(N)nc3ccccc3c2c1CCNC(=O)C1CC1
Second: C#CCn1c(-c2ccccc2)nc(CC)c(O)c1=O
The melting point of the first is higher: 215 to 217 °C for the first, 152 to 154 °C for the second.

First: COc1cc(-c2oc3ccccc3c(=O)c2OCC(O)CN2CCN(c3ccccc3)CC2)cc(OC)c1OC (stereo not given)
Second: CCCc1noc(/C=C/c2cn(-c3ccccc3)nc2OCc2ccc(OCc3nc(-c4ccco4)oc3C)c(OC)c2)n1
The melting point of the first is lower: 170 to 171 °C for the first, 192 to 193 °C for the second.

First: OCc1cccc2cccnc12
Second: CS(=O)(=O)N(Cc1ccncc1)Cc1ccccc1F
The melting point of the first is higher: 74 to 75 °C for the first, 69 to 70 °C for the second.

First: CC1(C)Oc2c(ccc(Cl)c2N)C1=O
Second: CCN1C(=O)OC(C)(C)c2cc(-c3cc(F)cc(C#N)c3)ccc21
The melting point of the first is lower: 91.5 to 93.5 °C for the first, 154 to 155 °C for the second.

First: CC(=O)N1CCC(COCc2cc(C(F)(F)F)cc(C(F)(F)F)c2)(c2ccccc2)CC1
Second: CC[C@H](CC(=O)NC(=O)OCc1ccccc1)Nc1ccc(C(F)(F)F)cc1
The melting point of the first is lower: 64 to 65 °C for the first, 101 °C for the second.

First: CN(CCc1ccc(NS(C)(=O)=O)cc1)Cc1cc2cc(NS(C)(=O)=O)ccc2o1
Second: Cc1oc2ccc(NC(=O)c3ccccc3)nc2c1CCN(C)C
The melting point of the first is higher: 177 to 179 °C for the first, 119 to 120 °C for the second.

First: COc1cc(C(C)C)c2c(c1)S(=O)(=O)NC2=O
Second: Cc1cc(C(O)CS(C)(=O)=O)cc(C)c1N(C)C (stereo not given)
The melting point of the first is higher: 188 °C for the first, 133 to 134 °C for the second.

Compared with `CCOC(=O)Cc1ccc(NC(=O)Nc2ccccc2)cc1`, `CCN(C(=O)NS(=O)(=O)c1ccccc1)c1ccc(Cl)cc1` is lower in melting point: 153 to 155 °C for the first, 145 to 146 °C for the second.

First: CCCCCCCCc1ccc(OCC(=O)Cn2cccc2)cc1
Second: CCN(CC1CCN(C(N)=O)CC1)C(C)Cc1ccc(OC)cc1 (stereo not given)
The melting point of the first is lower: 58 to 59 °C for the first, 104 to 110 °C for the second.

First: CC12C=CC(=O)C=C1CCC1C2C(O)CC2(C)C1CCC2(O)C(O)C(=O)O (stereo not given)
Second: CC(=O)OC1(C(C)=O)C(C)CC2C3CCC4=CC(=O)C=CC4(C)C3=CCC21C (stereo not given)
The melting point of the first is lower: 213 to 214 °C for the first, 230 to 233 °C for the second.

Compared with `C[C@@H](c1ccc(F)cc1)N1CCN(c2cc(Oc3cccc4[nH]c(=O)c(N)nc34)ncn2)CC1`, `CC(CC(=O)Nc1c(Cl)ccc2nc(N3CCNCC3)ccc12)c1ccccc1` (stereo not given) is lower in melting point: 294 to 295 °C for the first, 194 to 196 °C for the second.

First: CCOC(=O)c1c(C)cc2nc(CO)n(-c3ccc(OC)c(OC)c3)c(=O)c2c1C
Second: CCOC(=O)c1ccc(CBr)cc1OC
The melting point of the first is higher: 181 to 182 °C for the first, 70 to 71 °C for the second.

First: O=C(O)c1cc(-c2ccc(Cl)cc2)n(-c2ccc(Cl)cc2Cl)n1
Second: CCCN1CCN=C1c1ccccc1C(=O)c1ccc(Cl)cc1
The melting point of the first is higher: 185 °C for the first, 131 to 133 °C for the second.

First: CC1=C(C(=O)N(C)Cc2ccc(Cl)cc2Cl)SC2=NCCN21
Second: COC(=O)C1CSc2ccc(Cl)cc2C1=O (stereo not given)
The melting point of the first is lower: 55 to 60 °C for the first, 64 to 67 °C for the second.

Compared with `COc1ccc(N)c(C(=O)O)c1OC`, `CCCOc1ccc(S(C)(=O)=O)cc1C(=O)O` is higher in melting point: 71 to 72 °C for the first, 148 to 152 °C for the second.

First: COc1c(Cl)cc(C(C)(C)N2CC(C)=C(c3ccccc3)C2=O)cc1Cl
Second: COc1ccc2nc(Nc3ccc(F)cc3C)nc(N(C)c3ccccc3)c2c1
The melting point of the first is lower: 136 to 139 °C for the first, 248 to 250 °C for the second.

Compared with `C=CC(O)C1=C(C)C(=NO)CCC1(C)C` (stereo not given), `CC(=O)c1ccc2c(c1)N(C)CCC2(C)C` is lower in melting point: 138 to 142 °C for the first, 46 to 48 °C for the second.

First: COc1cccc([C@H]2O[C@H](CC(=O)N[C@H](CCSC)C(=O)O)C(=O)N(CC(C)(C)C)c3ccc(Cl)cc32)c1OC
Second: COC(CCN(C(=O)OC(C)(C)C)c1cc(OCc2ccccc2)c2ncccc2c1I)OC
The melting point of the first is higher: 161 to 162 °C for the first, 120 to 121 °C for the second.

First: O=C(CCCl)Nc1ccc(C(=O)O)cc1
Second: O=C(O)CCc1cccc2c1NC(=O)CC2
The melting point of the first is higher: 225 °C for the first, 164 to 165 °C for the second.

Compared with `Cc1nc2ccc(C(=O)O)nc2n1Cc1ccc(-c2ccccc2)cc1`, `COc1ccc(S(=O)(=O)n2ccc3ccnc(-c4ccc(O)cc4)c32)cc1` is lower in melting point: > 250 °C for the first, 179 to 182 °C for the second.

First: COC(C)c1ccc(C=C(C)c2ccc3c(c2)C(C)(C)CCC3(C)C)cc1 (stereo not given)
Second: COc1ccc2cc([C@H](C)C(=O)OCC(=O)N3CCC(CO[N+](=O)[O-])CC3)ccc2c1
The melting point of the first is lower: 88 to 89 °C for the first, 94 to 95 °C for the second.

First: C#CCCc1cc2ccc(C(=O)OC)cc2o1
Second: CCOc1ccc2ccc(NC(=O)c3ccc(OC)cc3)nc2n1
The melting point of the first is lower: 68 to 69 °C for the first, 152 °C for the second.

First: CN1CCN(C2CCC(Nc3ncc4ncnc(Nc5ccc(F)c(Cl)c5)c4n3)CC2)CC1 (stereo not given)
Second: CC#CC(=O)N[C@H]1CC[C@H](CCN2CCN(c3nccc4c3CCO4)CC2)CC1
The melting point of the first is higher: 194 to 196 °C for the first, 193 °C for the second.

First: COc1c2occc2c(OC)c2c(=O)cc(N3CCC(C4CCN(c5cc(=O)c6c(OC)c7ccoc7c(OC)c6o5)CC4)CC3)oc12
Second: Cc1noc2ccc(Oc3ncccc3C(=O)NCC3CCC(C(C)(C)O)CC3)cc12 (stereo not given)
The melting point of the first is lower: 126 to 129 °C for the first, 135 to 137 °C for the second.

Compared with `Cc1cc(C)c2ccc(S(=O)(=O)O)nc2n1`, `CS(=O)(=O)c1cccnc1S(C)(=O)=O` is lower in melting point: > 280 °C for the first, 175 to 176 °C for the second.

First: CS(=O)(=O)c1ccc(-c2cc(C(=O)CCCO)nn2C2CCCCC2)cc1
Second: Cc1ccc(S(=O)(=O)OC[C@H]2CC[C@@H](COS(=O)(=O)c3ccc(C)cc3)O2)cc1
The melting point of the first is lower: 112 to 114 °C for the first, 125 to 126 °C for the second.

Compared with `Nc1cccc(-c2cccc3c2/C(=C/c2ccc[nH]2)C(=O)N3)c1`, `O=C1c2ccccc2CC(=NO)c2ccccc21` is higher in melting point: 92 to 94 °C for the first, 186 °C for the second.

First: COc1cc(=O)n(-c2cccc(C(F)(F)F)c2)nc1C(C)=O
Second: O=c1c(-c2cccc(C(F)(F)F)c2F)nn(Cc2ccc(F)cc2F)c2cc(Cl)ccc12
The melting point of the first is higher: 136 to 138 °C for the first, 118 to 120 °C for the second.

First: CC#Cc1ccc([C@H]2CC[C@H](CCCCC)CC2)nn1
Second: CCCCOc1ccc(S(C)(=O)=O)cc1-c1nc2c(CC)n(CCN3CCOCC3)nc2c(=O)[nH]1
The melting point of the first is lower: 103 to 104 °C for the first, 235 to 238 °C for the second.

Compared with `CC(C)(C)c1cc(I)c2c(c1)CNC1(CCCCC1)O2`, `Oc1ccc2nc(-c3ccc(O)c(C45CC6CC(CC(C6)C4)C5)c3)[nH]c2c1` is higher in melting point: 112 to 114 °C for the first, 241 to 243 °C for the second.

Compared with `CCOC(=O)COc1c(C)c(C(F)(F)F)nc(C(F)(F)F)c1C(=O)OCC`, `COCCc1nc2c(N)nc(C)c(C)c2n1NC1CCOCC1` is higher in melting point: 42 to 44 °C for the first, 110 to 120 °C for the second.

First: Clc1ccc2c(CCN3CCN(c4cccc5c4OCCO5)CC3)c[nH]c2c1
Second: O=C1CCC(CCO)(c2ccc(F)c(F)c2)CN1Cc1ccccc1 (stereo not given)
The melting point of the first is higher: 215 to 216 °C for the first, 153 to 154 °C for the second.

First: COc1ccc2nc(NC(=O)C(CC3CCCC3)c3ccc(S(=O)(=O)NCc4ccccc4F)cc3)sc2n1 (stereo not given)
Second: CCOP(=O)(CCN1CCC(N(NCCN2CCCC2)S(=O)(=O)c2ccc(Nc3nccc(Nc4ccc(F)cc4)n3)cc2)CC1)OCC
The melting point of the first is higher: 238 to 240 °C for the first, 85 °C for the second.

Compared with `COc1ccc(C2CC(=O)C(=C3SC4NCCNC4S3)C(=O)C2)cc1` (stereo not given), `O=C1CCC(c2c[nH]c3ccc(F)cc23)C1` (stereo not given) is lower in melting point: 160 to 162 °C for the first, 119 to 120 °C for the second.

Compared with `CC(=O)N[C@@H](CS)C(=O)NCCSC(C)=O`, `N=C(N)Nc1nc(CSCCC(N)=O)cs1` is higher in melting point: 153 to 154 °C for the first, 193 to 194 °C for the second.

First: NC1=CC(N)=NCN1C(=O)OCc1ccccc1
Second: O=C1CC(c2cccnc2)=NN1c1ccccc1
The melting point of the first is higher: 194 °C for the first, 102 to 103 °C for the second.

First: COC(=O)CSc1nc(N2CCN(c3ncccn3)CC2)ncc1[N+](=O)[O-]
Second: C[Si](C)(C)CCCOc1cc(Cl)c([N+](=O)[O-])cc1Cl
The melting point of the first is higher: 250 to 252 °C for the first, 45 to 48 °C for the second.

`O=[N+]([O-])c1ccccc1NCC(F)(F)F` and `Cc1c2n(c3ccccc13)C(=O)C(CO)(Cc1ncn(C(c3ccccc3)(c3ccccc3)c3ccccc3)c1C)CC2` (stereo not given) cannot be ordered by melting point: 84 to 89 °C for the first, 85 to 88 °C for the second.
